Experimental data from patent US4792554A, “Pyridine compounds, pharaceutical compositions, their use in allergy therapy” (priority 1985, dated 1988).

How the values were obtained:
[1] = Normal weight gain of rats in a subchronic 14-day experiment; type: in vivo, rat; conditions: high oral doses
Description: Finally, the compound of Example 3 had no effect, even at high oral doses, on the normal weight gain of rats in a subchronic 14-day experiment. It is evident from this that the compounds of the formula I have no appetite-stimulating action in contrast to many other antihistamines.

[2] = tested on: bradykinin; experiment: Antagonistic action towards bradykinin: inhibition of bradykinin-induced bronchospasm in anesthetized guinea pigs (Konzett-Rössler); type: in vivo, guinea pig; conditions: Cavia porcellus, iv, anesthetized guinea pigs, dose reducing induced spasm to one half; read-out: Inhibitory action towards bradykinin (ED50)
Method: (§1) 1. Antagonistic action towards the allergy mediators (on anesthetized guinea pigs)
(§2) The test substances were administered intravenously in aqueous solution injected in a volume of 1 ml/kg.

[3] = tested on: asthma induced by histamine; experiment: Inhibition by inhalation of allergic asthma induced by histamine in conscious guinea pigs; type: in vivo, guinea pig; conditions: 0.3% strength aerosol
[4] = tested on: rat peritoneal mast cells; experiment: Histamine release from isolated rat mast cells induced by calcium ionophore A 23 187; type: cell-based; conditions: Mast cell, 0.25 h, 15 min incubation, A 23 187 10^-6 g/ml, read-out: Inhibitory action in the Ca ionophore test IC50
Method: (b) Histamine release from isolated rat mast celss induced by calcium ionophore A 23 187 […] […] For this purpose, 10^4 cells were suspended in Clicks/RPMI (50:50, vol.; supplied by Serva, Heidelberg) tissue culture medium, incubated with the test substance for 15 minutes, and then treated with calcium ionophore A 23 187 at a concentration of 10^-6 g/ml. The released histamine was determined by high-pressure liquid chromatography (HPLC). The measure used for the inhibitory action was the IC50 which represents the molar concentration (mol/l) at which the induced histamine release was decreased to one half that of cells which had not been pretreated with a product. In this context, IC50 values above 10^-5 mol/l are regarded as therapeutically irrelevant.

[5] = tested on: mast cells; experiment: Passive cutaneous anaphylaxis (PCA) in the rat, inhibition of mediator release (protective effect on mast cells); type: in vivo; conditions: Mast cell
Description: (a) Passive cutaneous anaphylaxis (PCA) in the rat (PCA test) Passive cutaneous anaphylaxis is an IgE-mediated allergy of the immediate type (type I). In this model, antibodies bound to mast cells and basophilic granulocytes react with an intravenously administered antigen with release of excessive amount of the allergy mediators. The histamine which is released during this can be visualized by simultaneous application of Evans blue to the shaven flanks of the rats. Photometric evaluation of the color intensity was used to determine, by means of the percentage inhibition of mediator release compared with untreated control animals, the protective effect on mast cells of the compound according to the invention after oral administration.

[6] = tested on: airway obstruction induced by histamine aerosol; experiment: Plethysmographic investigation on conscious guinea pigs with airway obstruction induced by inhalation of histamine aerosol; type: in vivo, guinea pig; conditions: oral, 0.3% strength histamine aerosol
[7] = tested on: isolated strips of lung and the isolated trachea of guinea pigs; experiment: Inhibition of contractions induced by calcium ionophore A 23 187 in isolated strips of lung and isolated trachea of guinea pigs; conditions: guinea pig
Method: (§3) The compounds of the formula I and their salts additionally show a pronounced inhibitory action on platelet activating factor (PAF) and the leukotrienes, which are likewise released as spasmogenic mediators from the mast cells during the course of the immediate anaphylactic reaction. It was possible to antagonize the bronchospasm induced in anesthetized rats by administration of PAF by, for example, intravenous administration of the compound of Example 3 with a ED50 of 1-3 mg/kg. The said products of the state of the art, such as oxatomide, ketotiphen and terfenadine, have no action in this test. The contractions induced by calcium ionophore A 23 187 in isolated strips of lung and the isolated trachea of guinea pigs were inhibited by, for example, the compound of Example 3 with an IC50 of 0.1-0.3 μg/ml. Since calcium ionophore A 23 187 stimulates 5-lipoxygenase and thus promotes the formation of spasmogenic leukotrienes, a possible interpretation of the result of this experiment is that the compounds according to the invention are potent leukotriene inhibitors.

[8] = tested on: histamine; experiment: Antagonistic action towards histamine: inhibition of histamine-induced bronchospasm in anesthetized guinea pigs (Konzett-Rössler); type: in vivo, guinea pig; conditions: Cavia porcellus, iv, anesthetized guinea pigs, dose reducing induced spasm to one half; read-out: Inhibitory action towards histamine (ED50)
Method: as §1, §2

[9] = tested on: leukotriene D4; experiment: Inhibition of leukotriene D4-induced spasm in isolated guinea pig trachea; conditions: leukotriene D4 10 pg/ml
[10] = Acute toxicity, mortality within 7 days after single i.p. administration to NMRI mice; conditions: in vivo, ip, mouse i.p.
Method: The LD50 values were determined by the standard method of the mortality occurring within 7 days after a single intraperitoneal (i.p.) administration to NMRI mice (NMRI=Naval Medical Research Institute).

[11] = tested on: platelet activating factor (PAF); experiment: Antagonism of PAF-induced bronchospasm in anesthetized rats; type: in vivo, rat; conditions: Rattus norvegicus, Platelet; intravenous, anesthetized rats
Method: as §3

For `Cc1cc(NCCN2CCN(C(c3ccccc3)c3ccccc3)CC2)c([N+](=O)[O-])c(C)n1.Cl.Cl.Cl` [Example 3, 2,6-dimethyl-3-nitro-4-[(2-{4-diphenylmethyl-1-piperazinyl}ethyl)amino]pyridine trihydrochloride], the “effect on normal weight gain” value [1] was “no effect”, the ED50 [2] was 0.15 mg/kg and the “suppression of experimentally induced asthma attacks” value [3] was “substantial suppression”. The IC50 [4] was 0.01 µM, the inhibition in vivo at 12.5 mg/kg ([5]; oral dose 12.5 mg/kg) was 26% and the inhibition in vivo at 25 mg/kg ([5]; oral dose 25 mg/kg) was 61%. The inhibition in vivo at 50 mg/kg ([5]; oral dose 50 mg/kg) was 85%, the ED50 ([6]; Cavia porcellus) was 3.15 mg/kg and the “time after administration to maximum effect” value [6] was 30 min. For the same compound, the “IC50, contractions induced by calcium ionophore A 23 187” value [7] was 0.1 to 0.3 µg/mL, the ED50 [8] was 0.3 mg/kg and the “concentration inhibiting leukotriene D4-induced spasm by 50%” value [9] was 3 to 6 µg/mL. It also gave an LD50 at 168 h [10] of 300 to 600 mg/kg and an ED50 [11] of 1 to 3 mg/kg.
